According to patent US7566718B2, “Amine-linked pyridyl and phenyl substituted piperazine-piperidines with CXCR3 antagonist activity” (Schering Corporation, priority 2005, dated 2009):

target: T1, human CXCR3 (N-delta 4) (Homo sapiens, UniProt P49682); assay: Human CXCR3 (N-delta 4) scintillation proximity assay (SPA), [125I] IP-10 binding to Ba/F3-hCXCR3 membranes; settings: IC50 rating; [125I] IP-10 displacement, human CXCR3; read-out: IC50
T1 construct: CD8 leader (N); Flag tag; expressed in transfected cells; membrane preparation
T1 sequence (P49682 5-368 limits assumed): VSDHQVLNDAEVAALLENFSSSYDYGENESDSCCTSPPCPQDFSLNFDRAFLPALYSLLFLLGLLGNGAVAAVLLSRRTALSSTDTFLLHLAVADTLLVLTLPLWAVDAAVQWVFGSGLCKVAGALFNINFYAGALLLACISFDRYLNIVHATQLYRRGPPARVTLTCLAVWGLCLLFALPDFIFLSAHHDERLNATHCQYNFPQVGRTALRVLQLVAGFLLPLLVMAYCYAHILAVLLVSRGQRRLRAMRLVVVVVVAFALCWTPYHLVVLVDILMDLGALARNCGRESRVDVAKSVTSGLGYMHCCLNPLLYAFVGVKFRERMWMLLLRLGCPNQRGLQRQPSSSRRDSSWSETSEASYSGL
From the text: The inventive compounds can readily be evaluated to determine activity at the CXCR3 receptors by known methods, such as, for example, development of a human CXCR3 (N-delta 4) Binding Assay.
The DNA encoding human CXCR3 was cloned by PCR using human genomic DNA (Promega, Madison, Wis.) as a template. The PCR primers were designed based on the published sequence of human orphan receptor GPR9 (1) with incorporated restriction sites, a Kozak consensus sequence, CD8 leader and Flag tag. The PCR product was subcloned into the mammalian expression vector pME18Sneo, a derivative of the SR-alpha expression vector (designated as pME18Sneo-hCXCR3 (N-delta 4).
IL-3-dependent mouse pro-B cells Ba/F3 were transfected by electroporation in 0.4 ml Dulbecco's PBS containing 4×10^6 cells with 20 μg of pME18Sneo-hCXCR3 (N-delta 4) plasmid DNA. Cells were pulsed at 400 Volts, 100 OHMs, 960 μFd. The transfected cells were under selection with 1 mg/ml G418 (Life Technologies, Gaithersburg, Md.). G418-resistant Ba/F3 clones were screened for CXCR3 expression by specific binding of [^125I] IP-10 (NEN Life Science Products, Boston, Mass.).
Ba/F3 cells expressing human CXCR3 (N-delta 4) were pelleted and resuspended in the lysis buffer containing 10 mM HEPES, pH 7.5 and Complete® protease inhibitors (1 tablet per 100 ml) (Boehringer Mannheim, Indianapolis, Ind.) at a cell density of 20×10^6 cells per ml. After 5 minute incubation on ice, cells were transferred to 4639 cell disruption bomb (Parr Instrument, Moline, Ill.) and applied with 1,500 psi of nitrogen for 30 minutes on ice. Large cellular debris was removed by centrifugation at 1,000×g. Cell membrane in the supernatant was sedimented at 100,000×g. The membrane was resuspended in the lysis buffer supplemented with 10% sucrose and stored at −80° C. Total protein concentration of the membrane was determined by BCA method from Pierce (Rockford, Ill.).
Human CXCR3 (N-Delta 4) Scintillation Proximity Assay (SPA):
For each assay point, 2 μg of membrane was preincubated for 1 hr with 300 μg wheat germ agglutinin (WGA) coated SPA beads (Amersham, Arlington Heights, Ill.) in the binding buffer (50 mM HEPES, 1 mM CaCl2, 5 mM MgCl2, 125 mM NaCl, 0.002% NaN3, 1.0% BSA) at room temperature. The beads were spun down, washed once, resuspended in the binding buffer and transferred to a 96-well Isoplate (Wallac, Gaithersburg, Md.). 25 pM of [^125I] IP-10 with tested compounds in a series of titration were added to start the reaction. After 3 hr reaction at room temperature, the amount of [^125I] IP-10 bound to the SPA beads was determined with a Wallac 1450 Microbeta counter.

SMILES	IC50
CC[C@H]1CN(c2ncc(NC3=NS(=O)(=O)N=C3N)cc2Cl)CCN1C1CCN(Cc2ccc(Cl)cc2-c2ncon2)CC1 [Compound 265]	> 100 nM
CC[C@H]1CN(c2ncc(NS(C)(=O)=O)cc2Cl)CCN1C1CCN(Cc2ccc(Cl)cc2O)CC1 [Compound 34]	25 to 100 nM
CC[C@H]1CN(c2ncc(NC3=NS(=O)(=O)N=C3NC[C@@H](C)O)cc2Cl)CCN1C1CCN(Cc2ccc(Cl)cc2F)CC1 [Compound 258]	25 to 100 nM
CC[C@H]1CN(c2ncc(NS(C)(=O)=O)cc2Cl)CCN1C1CCN(Cc2ccc(O)cc2)CC1 [Compound 67]	> 100 nM
CC[C@H]1CN(c2ncc(NS(C)(=O)=O)cc2Cl)CCN1C1CCN(C(=O)c2ccc(Cl)cc2N)CC1 [Compound 24]	25 to 100 nM
C[C@H]1CN(c2ncc(N)cc2Cl)CCN1C1CCN(Cc2ccc(Cl)cc2)CC1 [Compound 218]	> 100 nM
CC[C@H]1CN(c2ncc(Nc3c(NC4CC4)c(=O)c3=O)cc2Cl)CCN1C1CCN(Cc2ccc(Cl)cc2)CC1 [Compound 70]	< 25 nM
CC[C@H]1CN(c2ncc(NC3=NS(=O)(=O)N=C3NCCO)cc2Cl)CCN1C1CCN(Cc2ccc(OC(F)(F)F)cc2)CC1 [Compound 239]	< 25 nM
CC[C@H]1CN(c2ncc(NC3=NS(=O)(=O)N=C3N(C)C)cc2Cl)CCN1C1CCN(Cc2ccc(Cl)cc2F)CC1 [Compound 237]	< 25 nM
CC[C@H]1CN(c2ncc(NS(C)(=O)=O)cc2Cl)CCN1C1CCN(C(C(=O)OC)c2ccc(Cl)cc2)CC1 (stereo partly shown) [Compound 27]	25 to 100 nM
CC[C@H]1CN(c2ncc(NS(C)(=O)=O)cc2Cl)CCN1C1CCN(C(=O)c2ccc(Cl)cc2)CC1 [Compound 51]	> 100 nM
CC[C@H]1CN(c2ncc(-n3cccn3)cc2Cl)CCN1C1CCN(Cc2ccc(OC(F)(F)F)cc2)CC1 [Compound 210]	25 to 100 nM
CC[C@H]1CN(c2ncc(NS(C)(=O)=O)cc2Cl)CCN1C1CCN(Cc2ccc(Cl)cc2N)CC1 [Compound 9]	< 25 nM
C[C@@H]1CN(c2ncc(Nc3c(NCC(F)(F)F)c(=O)c3=O)cc2Cl)[C@@H](C)CN1C1CCN(CC(c2ccccc2)c2ccccc2)CC1 [Compound 160]	> 100 nM
CC[C@H]1CN(c2ncc(NS(=O)(=O)C(C)C)cc2Cl)CCN1C1CCN(Cc2ccc(Cl)cc2F)CC1 [Compound 29]	25 to 100 nM
CC[C@H]1CN(c2ncc(NC3=NS(=O)(=O)N=C3NC3CC3)cc2Cl)CCN1C1CCN(Cc2ccc(Cl)cc2-c2ncon2)CC1 [Compound 249]	< 25 nM
CC[C@H]1CN(c2ncc(NC3=NS(=O)(=O)N=C3NC(C)(C)C)cc2Cl)CCN1C1CCN(Cc2ccc(Cl)cc2F)CC1 [Compound 255]	25 to 100 nM
CC[C@H]1CN(c2ncc(Nc3c(NC4CC4)c(=O)c3=O)cc2Cl)CCN1C1CCN(C(=O)c2ccc(Cl)cc2N)CC1 [Compound 111]	25 to 100 nM
CC[C@H]1CN(c2ncc(NC3=NS(=O)(=O)N=C3NC)cc2Cl)CCN1C1CCN(Cc2ccc(Cl)cc2C(=N)NO)CC1 [Compound 244]	< 25 nM
C[C@@H]1CN(c2ncc(Nc3c(NCC(F)(F)F)c(=O)c3=O)cc2Cl)[C@@H](C)CN1C1CCN(Cc2ccc(C#Cc3ccccc3)cc2)CC1 [Compound 126]	> 100 nM
CC[C@H]1CN(c2ncc(NCCCC(F)(F)F)cc2Cl)CCN1C1CCN(Cc2ccc(Cl)cc2)CC1 [Compound 204]	25 to 100 nM
CC[C@H]1CN(c2ncc(Nc3c(N(C)C)c(=O)c3=O)cc2Cl)CCN1C1CCN([C@H](C(=O)NC)c2ccc(Cl)cc2)CC1 [Compound 128]	> 100 nM
C[C@H]1CN(c2ncc(Nc3ncccn3)cc2Cl)CCN1C1CCN(Cc2ccc(Cl)cc2F)CC1 [Compound 223]	> 100 nM
C[C@@H]1CN(C2CCN(Cc3ccc(Cl)cc3F)CC2)[C@@H](C)CN1c1ncc(Nc2c(N)c(=O)c2=O)cc1Cl [Compound 100]	< 25 nM
CC[C@H]1CN(c2ncc(NC3=NS(=O)(=O)N=C3NC)cc2Cl)CCN1C1CCN(Cc2ccc(Cl)cc2C#N)CC1 [Compound 263]	25 to 100 nM
COc1ccccc1CN1CCC(N2C[C@H](C)N(c3ncc(Nc4c(NCC(F)(F)F)c(=O)c4=O)cc3Cl)C[C@H]2C)CC1 [Compound 154]	> 100 nM
CC[C@H]1CN(c2ncc(NS(C)(=O)=O)cc2Cl)CCN1C1CCN(Cc2ccc(Cl)s2)CC1 [Compound 26]	25 to 100 nM
CC[C@H]1CN(c2ncc(NS(C)(=O)=O)cc2Cl)CCN1C1CCN(Cc2c(F)cc(F)cc2F)CC1 [Compound 47]	> 100 nM
C[C@@H]1CN(c2ncc(Nc3c(NCC(F)(F)F)c(=O)c3=O)cc2Cl)[C@@H](C)CN1C1CCN(Cc2ccco2)CC1 [Compound 142]	> 100 nM
CC[C@H]1CN(c2ncc(Nc3c(NC4CC4)c(=O)c3=O)cc2Cl)CCN1C1CCN(Cc2ccc(Cl)cc2F)CC1 [Compound 73]	< 25 nM

The next lines start with the values.

IC50	SMILES
> 100 nM	CCCCNC1=NS(=O)(=O)N=C1Nc1cnc(N2CCN(C3CCN(Cc4ccc(Cl)cc4C#N)CC3)[C@@H](CC)C2)c(Cl)c1 [Compound 273]
< 25 nM	CC[C@H]1CN(c2ncc(NS(C)(=O)=O)cc2Cl)CCN1C1CCN(Cc2ccc(C)cc2C)CC1 [Compound 20]
25 to 100 nM	CC[C@H]1CN(c2ncc(NC3=NS(=O)(=O)N=C3NCCO)cc2Cl)CCN1C1CCN(Cc2ccc(F)c(F)c2)CC1 [Compound 257]
< 25 nM	CC[C@H]1CN(c2ccc(Nc3c(NC4CC4)c(=O)c3=O)cc2Cl)CCN1C1CCN(Cc2ccc(Cl)cc2F)CC1 [Compound 82]
25 to 100 nM	C[C@@H]1CN(C2CCN(Cc3ccc(Cl)cc3F)CC2)[C@@H](C)CN1c1ncc(Nc2c(NCC(F)(F)F)c(=O)c2=O)cc1Cl [Compound 104]
> 100 nM	CC[C@H]1CN(c2ncc([N+](=O)[O-])cc2Cl)CCN1C1CCN(Cc2ccc(Cl)cc2-c2nnc(Br)[nH]2)CC1 [Compound 230]
< 25 nM	CC[C@H]1CN(c2ncc(NS(C)(=O)=O)cc2Cl)CCN1C1CCN(Cc2ccc(OC)cc2OC)CC1 [Compound 18]
> 100 nM	CC[C@H]1CN(c2ncc(NS(C)(=O)=O)cc2Cl)CCN1C1CCN(C(=O)c2ccc(Cl)c(Cl)c2)CC1 [Compound 63]
> 100 nM	CCC(C)CN1CCC(N2C[C@H](C)N(c3ncc(Nc4c(NCC(F)(F)F)c(=O)c4=O)cc3Cl)C[C@H]2C)CC1 (stereo partly shown) [Compound 132]
> 100 nM	CCNC(=O)Nc1ccc(N2CCN(C3CCN(Cc4ccc(Cl)cc4)CC3)[C@@H](CC)C2)c(Cl)c1 [Compound 192]
> 100 nM	CC[C@H]1CN(c2ncc(NS(C)(=O)=O)cc2Cl)CCN1C1CCN(Cc2cc(C)c(C)s2)CC1 [Compound 43]
25 to 100 nM	CC[C@H]1CN(c2c(F)cc(Nc3c(NC4CC4)c(=O)c3=O)cc2Cl)CCN1C1CCN(Cc2ccc(Cl)cc2F)CC1 [Compound 105]
< 25 nM	CC[C@H]1CN(c2ncc(NS(N)(=O)=O)cc2Cl)CCN1C1CCN(C(CO)c2ccc(Cl)cc2)CC1 (stereo partly shown) [Compound 3]
> 100 nM	CCC(C)CN1CCC(N2C[C@H](C)N(c3ncc(Nc4c(NCC(F)(F)F)c(=O)c4=O)cc3Cl)C[C@H]2C)CC1 (stereo partly shown) [Compound 170]
25 to 100 nM	CC[C@H]1CN(c2ncc(NC(N)=O)cc2Cl)CCN1C1CCN(Cc2ccc(Cl)cc2F)CC1 [Compound 186]
< 25 nM	CC[C@H]1CN(c2ncc(Nc3c(NCCN(C)C)c(=O)c3=O)cc2Cl)CCN1C1CCN([C@H](CO)c2ccc(Cl)cc2)CC1 [Compound 95]
> 100 nM	CC[C@H]1CN(c2ncc(NS(C)(=O)=O)cc2Cl)CCN1C1CCN(Cc2ccc(N(C)C)cc2)CC1 [Compound 45]
< 25 nM	CC[C@H]1CN(c2ncc(Nc3c(NC4CC4)c(=O)c3=O)cc2Cl)CCN1C1CCN(Cc2ccc(OC(F)(F)F)cc2)CC1 [Compound 77]
< 25 nM	CC[C@H]1CN(c2ncc(NC3=NS(=O)(=O)N=C3NC3CC3)cc2Cl)CCN1C1CCN(Cc2ccc(C(F)(F)F)cc2)CC1 [Compound 245]
